Measurements reported in patent US20230085307A1, “PYRIDAZINONE COMPOUND AND HERBICIDE” (NISSAN CHEMICAL CORPORATION, priority 2019, published 2023).

Assays:
wild oat [1] = test: Test Example 5: herbicidal effect by foliage application, plastic box (Table 20, symbol I); type: in vivo, wild oat (Avena fatua); conditions: foliage application, 320 g/ha, three weeks after application
In short: (§1)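 Sow seeds spot-wise in sterilized diluvial soil; cover with ~1.5 cm soil. Grow 14 days in greenhouse, 25° C. to 30° C. Spray foliage with emulsion diluted to predetermined amount. Rate effect after 3 weeks.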

lambsquarters [2] = test: Test Example 4: herbicidal effect by soil treatment (Table 19, symbol O); type: in vivo, lambsquarters (Chenopodium album); conditions: amount of applied herbicide 320 g/ha
In short: (§2)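 Applied as a water-diluted emulsion, the compound was sprayed onto soil covering newly sown seeds. Evaluation came three weeks after application, in a greenhouse held at 25° C. to 30° C.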

chickweed = test: Test Example 4: herbicidal effect by soil treatment (Table 19, symbol P); type: in vivo, common chickweed (Stellaria media); conditions: amount of applied herbicide 320 g/ha
In short: as §2

Japanese bulrush = test: Test Example 2: herbicidal activity, application during weed generation under submerged conditions (Table 17, symbol B); type: in vivo, Japanese bulrush (Schoenoplectus juncoides); conditions: AAH 320 g/ha; application during weed generation, submerged conditions
In short: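 Herbicide emulsion, diluted with water to the chosen amount, is applied onto 4 cm floodwater over alluvial soil where the weeds were co-sown and raised at 25–30° C. Application timing: 1–2 leaves. Assessment: three weeks afterwards.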

velvetleaf = test: Test Example 5: herbicidal effect by foliage application, plastic box (Table 20, symbol M); type: in vivo, velvetleaf (Abutilon theophrasti); conditions: foliage application, 320 g/ha, three weeks after application
In short: as §1

Italian ryegrass = test: Test Example 4: herbicidal effect by soil treatment (Table 19, symbol K); type: in vivo, Italian ryegrass (Lolium multiflorum); conditions: amount of applied herbicide 320 g/ha
In short: as §2

green foxtail [3] = test: Test Example 4: herbicidal effect by soil treatment (Table 19, symbol G); type: in vivo, green foxtail (Setaria viridis); conditions: amount of applied herbicide 320 g/ha
In short: as §2

persian speedwell = test: Test Example 5: herbicidal effect by foliage application, plastic box (Table 20, symbol R); type: in vivo, Persian speedwell (Veronica persica); conditions: foliage application, 320 g/ha, three weeks after application
In short: as §1

redroot pigweed = test: Test Example 5: herbicidal effect by foliage application, plastic box (Table 20, symbol N); type: in vivo, redroot pigweed (Amaranthus retroflexus); conditions: foliage application, 320 g/ha, three weeks after application
In short: as §1

late watergrass = test: Test Example 1: herbicidal activity, application before weed generation under submerged conditions (Table 16, symbol A); type: in vivo, late watergrass (Echinochloa oryzicola); conditions: amount of applied herbicide 320 g/ha
In short: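 Submerged Wagner pots (alluvial soil, 4 cm water) sown with weed seeds and planted with 2.5-leaf rice seedlings; emulsifiable concentrate diluted in water applied to water surface on sowing day. Held in greenhouse at 25-30 °C; injury scored 0-5 by herbicidal rate after three weeks.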

windgrass [4] = test: Test Example 4: herbicidal effect by soil treatment (Table 19, symbol L); type: in vivo, windgrass (Apera spica-venti); conditions: amount of applied herbicide 320 g/ha
In short: as §2

wild oat [5] = test: Test Example 4: herbicidal effect by soil treatment (Table 19, symbol I); type: in vivo, wild oat (Avena fatua); conditions: amount of applied herbicide 320 g/ha
In short: as §2

windgrass [6] = test: Test Example 5: herbicidal effect by foliage application, plastic box (Table 20, symbol L); type: in vivo, windgrass (Apera spica-venti); conditions: foliage application, 320 g/ha, three weeks after application
In short: as §1

barnyard grass = test: Test Example 4: herbicidal effect by soil treatment (Table 19, symbol H); type: in vivo, barnyard grass (Echinochloa crus-galli); conditions: amount of applied herbicide 320 g/ha
In short: as §2

Chinese sprangletop = test: Test Example 3: herbicidal effect by foliage application, Wagner pot (Table 18, symbol D); type: in vivo, chinese sprangletop (Leptochloa chinensis); conditions: amount of applied herbicide 320 g/ha
In short: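 Plants were sown in alluvial soil held under 0.1–0.5 cm standing water and grown 14 days in a greenhouse at 25–30 °C. An emulsifiable formulation, water-diluted to the set dose, was then sprayed onto the foliage, and effects were scored three weeks later using previously defined criteria.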

green foxtail [7] = test: Test Example 5: herbicidal effect by foliage application, plastic box (Table 20, symbol G); type: in vivo, green foxtail (Setaria viridis); conditions: foliage application, 320 g/ha, three weeks after application
In short: as §1

lambsquarters [8] = test: Test Example 5: herbicidal effect by foliage application, plastic box (Table 20, symbol O); type: in vivo, lambsquarters (Chenopodium album); conditions: foliage application, 320 g/ha, three weeks after application
In short: as §1

Structure (SMILES)	I: wild oat, herbicidal effect grade (wild oat [1])	herbicidal effect, O: lambsquarters (lambsquarters [2])	herbicidal effect, P: chickweed (chickweed)	herbicidal effect rating, B: Japanese bulrush (Japanese bulrush)	M: velvetleaf, herbicidal effect grade (velvetleaf)	herbicidal effect, K: Italian ryegrass (Italian ryegrass)	herbicidal effect, G: green foxtail (green foxtail [3])	R: persian speedwell, herbicidal effect grade (persian speedwell)	N: redroot pigweed, herbicidal effect grade (redroot pigweed)	Herbicidal effect, A: late watergrass (late watergrass)	herbicidal effect, L: windgrass (windgrass [4])	herbicidal effect, I: wild oat (wild oat [5])	L: windgrass, herbicidal effect grade (windgrass [6])	herbicidal effect, H: barnyard grass (barnyard grass)	herbicidal effect on D: Chinese sprangletop (Chinese sprangletop)	G: green foxtail, herbicidal effect grade (green foxtail [7])	O: lambsquarters, herbicidal effect grade (lambsquarters [8])
COc1cc(F)ccc1-c1sc2cc(F)ccc2c1-c1c(O)c(C)nn(C)c1=O [3-009]	5 (Herbicidal rate of 90% or more (almost completely withered))	5 (Herbicidal rate of 90% or more (almost completely withered))	4 (Herbicidal rate of 70% or more and less than 90%)	1 (Herbicidal rate of 5% or more and less than 20%)	5 (Herbicidal rate of 90% or more (almost completely withered))	4 (Herbicidal rate of 70% or more and less than 90%)	4 (Herbicidal rate of 70% or more and less than 90%)	5 (Herbicidal rate of 90% or more (almost completely withered))	5 (Herbicidal rate of 90% or more (almost completely withered))	1 (Herbicidal rate of 5% or more and less than 20%)	5 (Herbicidal rate of 90% or more (almost completely withered))	4 (Herbicidal rate of 70% or more and less than 90%)	5 (Herbicidal rate of 90% or more (almost completely withered))	5 (Herbicidal rate of 90% or more (almost completely withered))	5 (Herbicidal rate of 90% or more (almost completely withered))	5 (Herbicidal rate of 90% or more (almost completely withered))	5 (Herbicidal rate of 90% or more (almost completely withered))
CCOc1cc(F)ccc1-c1sc2cc(F)ccc2c1-c1c(O)c(C)nn(C)c1=O [3-011]	5 (Herbicidal rate of 90% or more (almost completely withered))	5 (Herbicidal rate of 90% or more (almost completely withered))	4 (Herbicidal rate of 70% or more and less than 90%)	3 (Herbicidal rate of 40% or more and less than 70%)	5 (Herbicidal rate of 90% or more (almost completely withered))	3 (Herbicidal rate of 40% or more and less than 70%)	5 (Herbicidal rate of 90% or more (almost completely withered))	5 (Herbicidal rate of 90% or more (almost completely withered))	5 (Herbicidal rate of 90% or more (almost completely withered))	5 (Herbicidal rate of 90% or more (almost completely withered))	5 (Herbicidal rate of 90% or more (almost completely withered))	4 (Herbicidal rate of 70% or more and less than 90%)	5 (Herbicidal rate of 90% or more (almost completely withered))	5 (Herbicidal rate of 90% or more (almost completely withered))	4 (Herbicidal rate of 70% or more and less than 90%)	5 (Herbicidal rate of 90% or more (almost completely withered))	5 (Herbicidal rate of 90% or more (almost completely withered))
CCCC(=O)Oc1c(C)nn(C)c(=O)c1-c1c(-c2ccc(F)cc2OCC)sc2cc(F)ccc12 [3-012]	5 (Herbicidal rate of 90% or more (almost completely withered))	3 (Herbicidal rate of 40% or more and less than 70%)	4 (Herbicidal rate of 70% or more and less than 90%)	5 (Herbicidal rate of 90% or more (almost completely withered))	5 (Herbicidal rate of 90% or more (almost completely withered))	3 (Herbicidal rate of 40% or more and less than 70%)	3 (Herbicidal rate of 40% or more and less than 70%)	5 (Herbicidal rate of 90% or more (almost completely withered))	5 (Herbicidal rate of 90% or more (almost completely withered))	5 (Herbicidal rate of 90% or more (almost completely withered))	5 (Herbicidal rate of 90% or more (almost completely withered))	3 (Herbicidal rate of 40% or more and less than 70%)	5 (Herbicidal rate of 90% or more (almost completely withered))	3 (Herbicidal rate of 40% or more and less than 70%)	2 (Herbicidal rate of 20% or more and less than 40%)	4 (Herbicidal rate of 70% or more and less than 90%)	4 (Herbicidal rate of 70% or more and less than 90%)
Cc1nn(C)c(=O)c(-c2c(-c3ccc4c(c3)OCCO4)sc3cc(F)ccc23)c1O [3-013]	0 (Herbicidal rate of 5% or less (almost no effect))	5 (Herbicidal rate of 90% or more (almost completely withered))	4 (Herbicidal rate of 70% or more and less than 90%)	0 (Herbicidal rate of 5% or less (almost no effect))	4 (Herbicidal rate of 70% or more and less than 90%)	0 (Herbicidal rate of 5% or less (almost no effect))	4 (Herbicidal rate of 70% or more and less than 90%)	5 (Herbicidal rate of 90% or more (almost completely withered))	5 (Herbicidal rate of 90% or more (almost completely withered))	3 (Herbicidal rate of 40% or more and less than 70%)	0 (Herbicidal rate of 5% or less (almost no effect))	0 (Herbicidal rate of 5% or less (almost no effect))	0 (Herbicidal rate of 5% or less (almost no effect))	5 (Herbicidal rate of 90% or more (almost completely withered))	4 (Herbicidal rate of 70% or more and less than 90%)	4 (Herbicidal rate of 70% or more and less than 90%)	5 (Herbicidal rate of 90% or more (almost completely withered))
CCCC(=O)Oc1c(C)nn(C)c(=O)c1-c1c(-c2ccc3c(c2)OCCO3)sc2cc(F)ccc12 [3-014]	1 (Herbicidal rate of 5% or more and less than 20%)	4 (Herbicidal rate of 70% or more and less than 90%)	4 (Herbicidal rate of 70% or more and less than 90%)	0 (Herbicidal rate of 5% or less (almost no effect))	5 (Herbicidal rate of 90% or more (almost completely withered))	0 (Herbicidal rate of 5% or less (almost no effect))	0 (Herbicidal rate of 5% or less (almost no effect))	5 (Herbicidal rate of 90% or more (almost completely withered))	5 (Herbicidal rate of 90% or more (almost completely withered))	5 (Herbicidal rate of 90% or more (almost completely withered))	0 (Herbicidal rate of 5% or less (almost no effect))	0 (Herbicidal rate of 5% or less (almost no effect))	0 (Herbicidal rate of 5% or less (almost no effect))	0 (Herbicidal rate of 5% or less (almost no effect))	0 (Herbicidal rate of 5% or less (almost no effect))	3 (Herbicidal rate of 40% or more and less than 70%)	5 (Herbicidal rate of 90% or more (almost completely withered))
